The text below walks through data of patent publication US9657018B2, “Antagonists acting at multiple prostaglandin receptors for the treatment of inflammation” (Allergan, Inc., priority 2014, dated 2017).

Structures can show the parent of a compound that is named as a salt.

What all share (type): cell-based
Test [1] has as its target T1, human prostanoid FP receptor (Homo sapiens, UniProt P43088).
T1 construct: expressed in transfected cells
Briefly: FLIPR Ca2+ signaling antagonist assay, FP receptor stable cell line. As to conditions: human recombinant FP in HEK-293 EBNA cells; standard agonist 17-phenyl-PGF2a; NA = no antagonism or Kb>=10,000 nM. The method, then: (§1) The above compounds were tested for PG antagonist activity as follows using human recombinant prostanoid receptor (DP1, EP1-4, FP, IP and TP) stable cell lines:
(§2) In order to measure the response of Gs and Gi coupled prostanoid receptors as a Ca^2+ signal, chimeric G protein cDNAs were used. Stable cell lines over-expressing human prostanoid DP1, EP1-4, FP, IP, and TP receptors were established as follows:
(§3) Briefly, human prostanoid DP1, EP2, and EP4 receptor cDNAs were co-transfected with chimeric Gqs cDNA containing a haemagglutanin (HA) epitope; human prostanoid EP3 receptors were co-transfected with chimeric Gqi-HA; human EP1, FP, IP, and TP receptor cDNAs were expressed with no exogenous G-proteins. Gqs and Gqi chimeric cDNAs (Molecular Devices, Sunnyvale, Calif., U.S.A.), as well as cDNAs of prostanoid receptors, were cloned into a pCEP4 vector with a hygromycin B selection marker. Transfection into HEK-293 EBNA (Epstein-Barr virus nuclear antigen) cells was achieved by the FuGENE 6 transfection Reagent (Roche Applied Science, Indianapolis, Ind., USA). Stable transfectants were selected according to hygromycin resistance. Because Gqs and Gqi contained an HA epitope, G-protein expression was detected by Western blotting analysis using anti-mouse HA monoclonal antibody and horseradish peroxidase (HRP)-conjugated secondary antibody, while functional expression of prostanoid receptors was detected by FLIPR screening (Matias et al., 2004). These stable cell lines were validated using previously published antagonists at 10 μM against serial dilutions of standard agonists by FLIPR functional assays for Ca^2+ Signaling (as described below).
(§4) Ca^2+ signaling studies were performed using a FLIPR TETRA system (Molecular Devices, Sunnyvale, Calif., USA) in the 384-format. This is a high-throughput instrument for cell-based assays to monitor Ca^2+ signaling associated with GPCRs and ion channels. Cells were seeded at a density of 5×10^4 cells/well in BioCoat poly-D-lysine coated, black wall, clear bottom 384-well plates (BD Biosciences, Franklin lakes, NJ, USA) and allowed to attach overnight in an incubator at 37° C. The cells were then washed twice with HBSS-HEPES buffer (Hanks' balanced salt solution without bicarbonate and phenol red, 20 mM HEPES, pH 7.4) using an ELx405 Select CW Microplate Washer (BioTek, Winooski, Vt., USA). After 60 min of dye-loading in the dark using the Ca^2+-sensitive dye Fluo-4AM (Invitrogen, Carlsbad, Calif., USA), at a final concentration of 2×10^−6M, the plates were washed 4 times with HBSS-HEPES buffer to remove excess dye and leaving 50 μl of buffer in each well. The plates were then placed in the FLIPR TETRA instrument and allowed to equilibrate at 37° C. AGN-211377 was added in a 25 μl volume to each well to give final concentrations of 0.1 μl. M, 0.4M, 1 μM, 3 μl. M, 10 μl. M, and 30 μl. M; or 0.067 μM, 0.4M, 0.67 μM, and 1 μM for cells over-expressing TP receptors. After 4.5 minutes, a 7-point serial dilution of the standard agonist for the corresponding receptor, in a 25 μl volume was injected at the final concentrations from 10^−11M to 10^−5M in 10-fold serial dilution increments for cells expressing human recombinant DP1, EP1, EP2, EP3, EP4, FP, and IP receptors. The dose range for the standard agonist for human recombinant TP receptors was from 10^−12M to 10^−6M. HBSS-HEPES buffer was used as the negative control for the standard agonists. Cells were excited with LED (light emitting diode) excitation at 470-495 nm and emission was measured through an emission filter at 515-575 nm. Assay plates were read for 3.5 minutes using the FLIPR^TETRA. The peak increase in fluorescence intensity was recorded for each well. On each plate, negative controls, dose response of positive controls, and co-treatments of antagonist-agonist for each dose were in triplicates. Standard agonists were as follows: DP=BW 245C, EP1-EP4=PGE2, FP=17-phenyl-PGF2a, IP=Cicaprost, and TP=U-46619. […]

Test [2] addresses T2, human prostanoid DP1 receptor (Homo sapiens, UniProt Q13258).
T2 construct: expressed in transfected cells
T2 sequence (Q13258 1-359): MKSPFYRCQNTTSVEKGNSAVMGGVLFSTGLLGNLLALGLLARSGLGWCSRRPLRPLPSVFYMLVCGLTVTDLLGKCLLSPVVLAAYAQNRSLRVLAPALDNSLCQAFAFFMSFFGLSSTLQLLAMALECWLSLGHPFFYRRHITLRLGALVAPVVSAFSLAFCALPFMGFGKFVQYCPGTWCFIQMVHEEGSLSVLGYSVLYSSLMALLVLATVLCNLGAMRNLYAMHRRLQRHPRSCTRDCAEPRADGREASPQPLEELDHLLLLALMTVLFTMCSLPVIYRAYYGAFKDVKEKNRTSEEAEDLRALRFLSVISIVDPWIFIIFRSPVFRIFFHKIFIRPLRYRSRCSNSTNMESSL
Briefly: FLIPR Ca2+ signaling antagonist assay, DP1 receptor stable cell line. Further details: key to FLIPR data DP1 (Kb): PAg = partial agonist; Ag = agonist; NA = not active. As to conditions: human recombinant DP1 + chimeric Gqs in HEK-293 EBNA cells; standard agonist BW 245C; NA = no antagonism or Kb>=10,000 nM. The method, then:
as §1, §2, §3, §4

The target in test [3] is T3, human prostanoid IP receptor (Homo sapiens, UniProt P43119).
T3 construct: expressed in transfected cells
In words: FLIPR Ca2+ signaling antagonist assay, IP receptor stable cell line. As to conditions: human recombinant IP in HEK-293 EBNA cells; standard agonist Cicaprost; NA = no antagonism or Kb>=10,000 nM. The method, then: as §1, §2, §3, §4

The target in test [4] is T4, human prostanoid EP3 receptor (Homo sapiens, UniProt P43115).
T4 construct: expressed in transfected cells
T4 sequence (P43115 1-390): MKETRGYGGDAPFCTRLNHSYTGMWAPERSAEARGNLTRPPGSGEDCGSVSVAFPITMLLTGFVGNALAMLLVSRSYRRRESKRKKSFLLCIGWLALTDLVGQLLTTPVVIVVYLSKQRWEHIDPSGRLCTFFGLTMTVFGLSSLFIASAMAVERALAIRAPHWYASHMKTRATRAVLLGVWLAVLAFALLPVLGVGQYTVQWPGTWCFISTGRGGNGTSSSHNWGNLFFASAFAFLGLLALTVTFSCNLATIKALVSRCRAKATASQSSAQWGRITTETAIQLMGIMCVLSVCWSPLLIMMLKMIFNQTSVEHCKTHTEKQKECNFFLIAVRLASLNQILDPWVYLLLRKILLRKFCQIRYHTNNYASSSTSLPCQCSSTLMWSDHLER
In words: FLIPR Ca2+ signaling antagonist assay, EP3 receptor stable cell line. As to conditions: human recombinant EP3 + chimeric Gqi in HEK-293 EBNA cells; standard agonist PGE2; NA = no antagonism or Kb>=10,000 nM. The method, then: as §1, §2, §3, §4

T1 sequence (P43088 whole entry): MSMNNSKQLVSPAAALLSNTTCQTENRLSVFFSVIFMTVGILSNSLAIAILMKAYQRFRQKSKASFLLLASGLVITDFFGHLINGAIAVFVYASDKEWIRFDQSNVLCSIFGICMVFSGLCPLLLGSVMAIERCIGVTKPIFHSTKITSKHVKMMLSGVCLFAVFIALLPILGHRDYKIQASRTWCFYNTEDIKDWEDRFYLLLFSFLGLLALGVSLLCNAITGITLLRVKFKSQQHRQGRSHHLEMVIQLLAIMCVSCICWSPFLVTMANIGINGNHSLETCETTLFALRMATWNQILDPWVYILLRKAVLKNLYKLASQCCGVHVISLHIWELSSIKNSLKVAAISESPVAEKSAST
T3 sequence (P43119 whole entry): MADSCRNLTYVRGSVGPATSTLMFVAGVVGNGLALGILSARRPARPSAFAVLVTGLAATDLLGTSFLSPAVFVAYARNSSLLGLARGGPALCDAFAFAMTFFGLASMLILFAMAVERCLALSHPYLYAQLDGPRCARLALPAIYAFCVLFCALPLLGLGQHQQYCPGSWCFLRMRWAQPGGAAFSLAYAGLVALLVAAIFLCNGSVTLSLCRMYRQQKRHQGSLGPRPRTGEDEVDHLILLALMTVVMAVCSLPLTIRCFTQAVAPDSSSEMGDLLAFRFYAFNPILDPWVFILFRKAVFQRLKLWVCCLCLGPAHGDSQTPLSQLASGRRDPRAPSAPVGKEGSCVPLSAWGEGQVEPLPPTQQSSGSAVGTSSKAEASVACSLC

In the case of `CC(C)Cn1ncc2cc(Cl)cc(Cn3ccc4cc(C(=O)O)cnc43)c21` [Compound 52, 1-(5-Chloro-1-isobutyl-1H-indazol-7-ylmethyl)-1H-pyrrolo[2,3-b]pyridine-5-carboxylic acid], the results for the Kb in test [1], in test [3] and in test [4] were 0.7 µM, 5.5 µM and 3.4 µM, respectively. The “FLIPR data DP1 (Kb)” value in test [2] is “Ag”.

For the compound `Cc1nn(Cc2cc(Br)cc3cnn(CC(C)C)c23)c2ccc(C(=O)O)cc12` [Compound 53, 1-(5-Bromo-1-isobutyl-1H-indazol-7-ylmethyl)-3-methyl-1H-indazole-5-carboxylic acid], the Kb (usually the affinity of an antagonist, worked out from how it opposes an agonist) in test [1] was 0.07 µM; in test [2], 0.64 µM; in test [3] it was greater than 10 µM; in test [4], greater than 10 µM.

Turning to `Cc1nn(Cc2cc(Br)cc3cnn(CC(C)C)c23)c2ncc(C(=O)O)cc12` [Compound 54, 1-(5-Bromo-1-isobutyl-1H-indazol-7-ylmethyl)-3-methyl-1H-pyrazolo[3,4-b]pyridine-5-carboxylic HCl salt], the antagonist dissociation constant (Kb) in test [1] was 0.6 µM; in test [2], 0.2 µM; in test [3], 9.5 µM; in test [4], greater than 10 µM.

For `CC(C)Cn1ncc2cc(C(F)(F)F)cc(Cn3cnc4cc(C(=O)O)ccc43)c21` [Compound 55, 1-(1-Isobutyl-5-trifluoromethyl-1H-indazol-7-ylmethyl)-1H-benzoimidazole-5-carboxylic acid], the Kb in test [1] is 3 µM; in test [2], greater than 10 µM; in test [3], 8.9 µM; in test [4], greater than 10 µM.

Take `CC(C)Cn1ncc2cc(OC(F)(F)F)cc(Cn3cnc4cc(C(=O)O)ccc43)c21` [Compound 56, 1-(1-Isobutyl-5-trifluoromethoxy-1H-indazol-7-ylmethyl)-1H-benzoimidazole-5-carboxylic acid]: the antagonist equilibrium constant (Kb) in test [1] is greater than 10 µM; in test [2] it was 5.2 µM; in test [3], 9 µM; in test [4], greater than 10 µM.

`CC(C)Cn1ncc2cc(Cl)cc(Cc3ncc4cc(C(=O)O)ccn34)c21` [Compound 61, 3-[(5-Chloro-1-isobutyl-indazol-7-yl)methyl]imidazo[1,5-a]pyridine-7-carboxylic acid]: the Kb in test [1] was 0.6 µM; in test [2], 4.7 µM; in test [3], greater than 10 µM; in test [4], greater than 10 µM.

For the compound `CC(C)Cn1ncc2cc(Cl)cc(Cn3nc(N)c4cc(C(=O)O)ccc43)c21` [Compound 68, 3-Amino-1-[(5-chloro-1-isobutyl-indazol-7-yl)methyl]indazole-5-carboxylic acid], the Kb is 0.035 µM in test [1], 3.7 µM in test [2], 9.3 µM in test [3] and greater than 10 µM in test [4].

As to `CNc1nn(Cc2cc(Cl)cc3cnn(CC(C)C)c23)c2ccc(C(=O)O)cc12` [Compound 70, 1-[(5-Chloro-1-isobutyl-indazol-7-yl)methyl]-3-(methylamino)indazole-5-carboxylic acid], the Kb came out at 0.017 µM in test [1], 1 µM in test [2], 0.9 µM in test [3] and 8.1 µM in test [4].
